The source of these data is US20220096410A1, “PHARMACEUTICAL COMPOSITION FOR INTRAOCULAR OR ORAL ADMINISTRATION FOR TREATMENT OF RETINAL DISEASES” (FUSO PHARMACEUTICAL INDUSTRIES, LTD., priority 2019, published 2022).

Structures are written as SMILES.

Holding throughout (format): in vivo, BALB/c mice
In experiment [1] the test system is light irradiation model (atrophic AMD model mouse). Put plainly: Pharmacological test against AMD, light-induced AMD model mice, oral administration, ONL thickness. How it is done: A test was performed using a light irradiation model, which is widely employed as an atrophic AMD model mouse, as a test model. Male BALB/c mice (4 weeks old) were purchased from Japan SLC, Inc., and allowed to acclimate for a week before being used for experiments. Laboratory animal chow (CLEA Rodent Diet CE-2, CREA JAPAN, INC.) was used as food, and tap water was freely consumed as drinking water. The animals were raised under light and dark cycles of every 12 hours. Also all animal experiments were conducted under the approval of the Kyushu University Animal Experiment Committee. To BALB/c mice, 1 mL/kg of 50 μM compound dissolved in PBS containing 10% polyethylene glycol (PEG) 300 was orally administered. Thirty (30) minutes later, one drop of […] (5 mg/mL tropicamide, 5 mg/mL phenylephrine hydrochloride; Santen Pharmaceutical Co., Ltd.) was applied to each eye as a mydriatic drug. The mice were irradiated with 8000 lux white light for 10 hours, then returned to under normal light and dark cycles, and raised for 6 days. On day 7, the animal was euthanized by cervical dislocation, and the eyeballs were removed (FIG. 1A). Frozen sections of 8 μm thickness were prepared by using the above-mentioned removed eyeballs, and subjected to hematoxylin eosin (HE) staining, and the thickness of the outer nuclear layer (ONL) was measured over 27 points every 180 μm (observation magnification: 60 times) (FIG. 1B). The preparation was air-dried for 1 hour, fixed with acetone at room temperature for 15 minutes, then immersed in 99.5% EtOH, 80% EtOH, 70% EtOH, and purified water in this order for 3 minutes each, and stained with hematoxylin for 10 minutes. Then, it was washed with running water for 10 minutes, soaked in warm water for 1 minute, and stained with eosin for 1.5 minutes. After washing with purified water, it was immersed in 70% EtOH, 80% EtOH, and 99.5% EtOH in this order for 3 minutes each, then washed with xylene three times, dried, and then enclosed with VectaMountTM Mounting Medium. The resultant was subjected to observation and imaging with Keyence fluorescence microscope (BZ-9000). Results were expressed as mean+standard deviation. Dunnett's Test was used for multigroup comparison.

The test system of another experiment is mRNA of the complement. Put plainly: Activity evaluation test of complement (real-time PCR of retina, AMD model mice). As to conditions: oral, 1 mL/kg of 50 μM, pathological group of mice. How it is done:
Specifically, to 9 week olds of BALB/c mice, 1 mL/kg of 50 μM test compounds dissolved in PBS containing 10% polyethylene glycol (PEG) 300 was orally administered. A PBS solution containing 10% polyethylene glycol (PEG) 300 was used as a control. Thirty (30) minutes later, one drop of Midrin P (5 mg/mL tropicamide, 5 mg/mL phenylephrine hydrochloride; Santen Pharmaceutical Co., Ltd.) as a mydriatic drug was applied to both eyes by one drop per one eye. The mice were irradiated with 8000 lux white light for 10 hours, then returned to under normal light and dark cycles, and raised for the desirable observation periods. After the observation periods, the animal was euthanized by cervical dislocation, and the retina were removed.
For the removed retina, RNA was extracted by using ISOSPIN Cell & Tissue RNA (manufactured by Nippon Gene Co. Ltd), and cDNA was then synthesized by using ReverTra Ace™ qPCR RT master Mix (manufactured by Toyobo Co. Ltd). The obtained cDNA was diluted with sterile water to 0.5 ng/μL, and a real-time PCR was carried out with THUNDERBIRD™ SYBR™ qPCR Mix (manufactured by Toyobo Co. Ltd). All of the test results were corrected by Gapdh mRNA amounts, and a relative quantification was carried. […]

The test system of experiment [2] is light irradiation model (atrophic AMD model mouse). Put plainly: Pharmacological test against AMD, light-induced AMD model mice, administration by eye drop, ONL thickness. As to conditions: 50 μL per one eye. How it is done: A test was performed using a light irradiation model, which is widely employed as an atrophic AMD model mouse, as a test model.
(§1) Male BALB/c mice (4 weeks old) were purchased from Japan SLC, Inc., and allowed to acclimate for a week before being used for experiments. Laboratory animal chow (CLEA Rodent Diet CE-2, CREA JAPAN, INC.) was used as food, and tap water was freely consumed as drinking water. The animals were raised under light and dark cycles of every 12 hours. Also all animal experiments were conducted under the approval of the Kyushu University Animal Experiment Committee.
To BALB/c mice, Midrin P (5 mg/mL tropicamide, 5 mg/mL phenylephrine hydrochloride; Santen Pharmaceutical Co., Ltd.) as a mydriatic drug was applied to both eyes by one drop per one eye, and after 10 minutes, 0.45%, 0.75% or 1% of methyldopa that was dissolved in PBS containing 10% polyethylene glycol (PEG) 300 was administered with eye drop in 50 μL of the compound per one eye. Thereafter, the mice were irradiated with 8000 lux white light for 10 hours, then returned to under normal light and dark cycles, and raised for 6 days. On day 7, the animal was euthanized by cervical dislocation, and the eyeballs were removed.
Frozen sections of 8 μm thickness were prepared by using the above-mentioned removed eyeballs, and subjected to hematoxylin eosin (HE) staining, and the thickness of the outer nuclear layer (ONL) was measured over 27 points every 180 μm (observation magnification: 40 times).
The preparation was air-dried for 1 hour, fixed with acetone at room temperature for 15 minutes, then immersed in 99.5% EtOH, 80% EtOH, 70% EtOH, and purified water in this order for 3 minutes each, and stained with hematoxylin for 10 minutes. Then, it was washed with running water for 10 minutes, soaked in warm water for 1 minute, and stained with eosin for 1.5 minutes. […] The resultant was subjected to observation and imaging with Keyence fluorescence microscope (BZ-9000).
Results were expressed as mean+standard deviation. […]

In experiment [3] the test system is mRNA of microglia marker protein. Put plainly: Activity evaluation test of microglia (real-time PCR of retina, AMD model mice). As to conditions: oral, 1 mL/kg of 50 μM, pathological group of mice. On the technique in general: In qPCR the cycle at which signal appears reflects the starting amount.
The test system of experiment [4] is mRNA of Muller cell marker protein. Put plainly: Activity evaluation test of Muller cell (real-time PCR of retina, AMD model mice). The settings on record: oral, 1 mL/kg of 50 μM, pathological group of mice.
Description: For age-related macular degeneration (AMD), the suppression activity of the test compounds against the expression amount of mRNA of a marker protein, which is used as an indicator of activity of Muller cell and is increased as a pathology is deteriorated, was examined. The present compound as test compound was methyldopa (Compound Y).
as §1
A method for producing age-related macular degeneration (AMD) model mice (production schedule) was prepared according to the method described in Test Example 2 (FIG. 3). […]
For the removed retina, RNA was extracted by using ISOSPIN Cell & Tissue RNA (manufactured by Nippon Gene Co. Ltd), and cDNA was then synthesized by using ReverTra Ace™ qPCR RT master Mix (manufactured by Toyobo Co. Ltd). […] All of the test results were corrected by Gapdh mRNA amounts, and a relative quantification was carried.

[5] abbreviates: 50 μmol/kg, 8000 lux white light 10 hours, day 7.

Consider `CC1Cc2ccccc2N1NC(=O)c1ccc(Cl)c(S(N)(=O)=O)c1` (racemic) [indapamide, 4-Chloro-N-[(2RS)-2-methyl-2,3-dihydro-1H-indol-1-yl]-3-sulfamoyl Benzamide], for which the “ONL thickness compared to positive control” value in experiment [1] (setting [5]) was “not different so much compared to that of the positive control”.

On to `CCOc1ccc2c(c1)C(C)=CC(C)(C)N2` [ethoxyquin, 6-Ethoxy-2,2,4-trimethyl-1,2-dihydroquinoline], for which the “ONL thickness compared to positive control” value in experiment [1] (setting [5]) was “not different so much compared to that of the positive control”.

For the compound `C[C@](N)(Cc1ccc(O)c(O)c1)C(=O)O` [methyldopa, Methyldopa Sesquihydrates], the “expression amounts of mRNA in the complement” value with mRNA of the complement was “suppress significantly”. For the same compound, the “ONL thickness compared to light irradiation case” value in experiment [2] (eye drop 0.45%), in experiment [2] (eye drop 0.75%) and in experiment [2] (eye drop 1%) was “significant thickness compared to that of the light irradiation case” each time. The “expression amounts of mRNA in microglia marker protein” value in experiment [3] is reported as “suppress significantly”. Moreover, the “ONL thickness compared to positive control” value in experiment [1] (100 μmol/kg) and in experiment [1] (200 μmol/kg) was “didn't have significant difference compared to that of the positive control” each time. For the same compound, in experiment [4], the “expression amounts of mRNA in Muller cell marker protein” value is given as “suppress significantly”.
